Results taken from patent publication US20250129070A1, “BIFUNCTIONAL ANDROGEN RECEPTOR COMPOUNDS” (priority 2023, published 2025).

Tests used:
AR / CBP ternary complex = test: Ternary complex formation assay (sandwich ELISA, AR capture / CBP detection) in VCaP cell lysates; type: cell-based; details: 1.5 hours treatment, sandwich ELISA (AR capture, CBP or p300 detection)
Procedure, shortened: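 VCaP cells (50K/well, 5% charcoal-stripped FBS, ≥3 days) treated with bifunctional compound for 1.5 h, then lysed 30 min at 4 °C. AR captured on anti-AR (AR 441) plates; bound CBP or p300 detected by rabbit mAb plus HRP secondary. QuantaRed chemifluorescence read at ex 570/em 585, immediately and at 5 and 15 min.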

VCaP cells = test: VCaP growth inhibition assay; type: cell-based; details: 30 pM R1881, 9 days, CTG
Procedure, shortened: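 VCaP cells in phenol red-free DMEM/5% CSS, pre-incubated 72 h, then stimulated with R1881 (final 30 pM) and treated with 1:5 serial dilutions (final 100 nM to 10 fM) for 9 days at 37 °C. Viability by CellTiter-Glo luminescence; IC50 from 4-parameter logistic fit of RLU vs concentration.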

Row | EC50 (AR / CBP ternary complex) | IC50 (VCaP cells) | Structure (SMILES)
1 | < 1 nM | ≤ 0.1 nM | COc1cc(OC2C(C)(C)C(NC(=O)c3ccc(N4CCC(OC5CCC(n6nc(N7CCCc8cc(-c9cnn(C)c9)c(C(F)F)cc87)c7c6CCN(C(C)=O)C7)CC5)CC4)cc3)C2(C)C)ccc1C#N (stereo not drawn) [Compound 308, 4-[4-[4-[5-acetyl-3-[7-(difluoromethyl)-6-(1-methylpyrazol-4-yl)-3,4-dihydro-2H-quinolin-1-yl]-6,7-dihydro-4H-pyrazolo[4,3-c]pyridin-1-yl]cyclohexoxy]-1-piperidyl]-N-[3-(4-cyano-3-methoxy-phenoxy)-2,2,4,4-tetramethyl-cyclobutyl]benzamide]
2 | < 1 nM | 0.1 to 1 nM | COc1cc(OC2C(C)(C)C(NC(=O)c3ccc(N4CC[C@@H](N5CCC(n6nc(N7CCCc8cc(-c9cnn(C)c9)c(C(F)F)cc87)c7c6CCN(C(C)=O)C7)CC5)C4)cc3)C2(C)C)ccc1C#N (stereo partly drawn) [Compound 337, 4-[(3R)-3-[4-[5-acetyl-3-[7-(difluoromethyl)-6-(1-methylpyrazol-4-yl)-3,4-dihydro-2H-quinolin-1-yl]-6,7-dihydro-4H-pyrazolo[4,3-c]pyridin-1-yl]-1-piperidyl]pyrrolidin-1-yl]-N-[3-(4-cyano-3-methoxy-phenoxy)-2,2,4,4-tetramethyl-cyclobutyl]benzamide]
3 | < 1 nM | 0.1 to 1 nM | COc1cc(OC2C(C)(C)C(NC(=O)c3ccc(N4CC5(CCC(N6CCC(n7nc(-c8cccc9cc(-c%10cnn(C)c%10)ncc89)c8c7CCN(C(C)=O)C8)CC6)CC5)C4)cc3)C2(C)C)ccc1C#N (stereo not drawn) [Compound 448, 4-[7-[4-[5-acetyl-3-[3-(1-methylpyrazol-4-yl)-8-isoquinolyl]-6,7-dihydro-4H-pyrazolo[4,3-c]pyridin-1-yl]-1-piperidyl]-2-azaspiro [3.5]nonan-2-yl]-N-[3-(4-cyano-3-methoxy-phenoxy)-2,2,4,4-tetramethyl-cyclobutyl]benzamide]
4 | < 1 nM | 0.1 to 1 nM | CC(=O)N1CCc2c(c(N3CCCc4cc(-c5cnn(C)c5)c(C(F)F)cc43)nn2C2CCC(OC3CN(c4ncc(C(=O)NC5C(C)(C)C(Oc6ccc(C#N)c(Cl)c6)C5(C)C)cn4)C3)CC2)C1 (stereo not drawn) [Compound 341]
5 | 1 to 10 nM | 1 to 100 nM | CC(=O)N1CCc2c(c(N3CCCc4cc(-c5cnn(C)c5)c(C(F)F)cc43)nn2C2CCC(C3CCC4(CC3)CN(c3ncc(C(=O)NC5C(C)(C)C(Oc6ccc(C#N)c(Cl)c6)C5(C)C)cn3)C4)CC2)C1 (stereo not drawn) [Compound 377, 2-[7-[4-[5-acetyl-3-[7-(difluoromethyl)-6-(1-methylpyrazol-4-yl)-3,4-dihydro-2H-quinolin-1-yl]-6,7-dihydro-4H-pyrazolo[4,3-c]pyridin-1-yl]cyclohexyl]-2-azaspiro[3.5]nonan-2-yl]-N-[3-(3-chloro-4-cyano-phenoxy)-2,2,4,4-tetramethyl-cyclobutyl]pyrimidine-5-carboxamide]
6 | 1 to 10 nM | 1 to 100 nM | COc1cc(OC2C(C)(C)C(NC(=O)c3ccc(N4CC5(CCC(C6CCC(n7nc(N8CCCc9cc(-c%10cnn(C)c%10)c(C(F)F)cc98)c8c7CCN(C(C)=O)C8)CC6)CC5)C4)cc3)C2(C)C)ccc1C#N (stereo not drawn) [Compound 380, 4-[7-[4-[5-acetyl-3-[7-(difluoromethyl)-6-(1-methylpyrazol-4-yl)-3,4-dihydro-2H-quinolin-1-yl]-6,7-dihydro-4Hpyrazolo[4,3-c]pyridin-1-yl]cyclohexyl]-2-azaspiro[3.5]nonan-2-yl]-N-[3-(4-cyano-3-methoxy-phenoxy)-2,2,4,4-tetramethyl-cyclobutyl]benzamide]
7 | 1 to 10 nM | 1 to 100 nM | COc1cc(OC2C(C)(C)C(NC(=O)c3ccc(N4CC5(CCC(C6CCC(n7nc(N8CCCc9cc(-c%10cnn(C)c%10)c(C(F)F)cc98)c8c7CCN(C(C)=O)C8)CC6)CC5)C4)cc3)C2(C)C)ccc1C#N (stereo not drawn) [Compound 378, 4-[7-[4-[5-acetyl-3-[7-(difluoromethyl)-6-(1-methylpyrazol-4-yl)-3,4-dihydro-2H-quinolin-1-yl]-6,7-dihydro-4H-pyrazolo[4,3-c]pyridin-1-yl]cyclohexyl]-2-azaspiro[3.5]nonan-2-yl]-N-[3-(4-cyano-3-methoxy-phenoxy)-2,2,4,4-tetramethyl-cyclobutyl]benzamide]

The next lines start with the compound.

Row | Structure (SMILES) | EC50 (AR / CBP ternary complex) | IC50 (VCaP cells)
8 | Cn1c(=O)n(C)c2cc(N3CCCc4cc(-c5ccc(CCC6CCN(c7ncc(C(=O)NC8C(C)(C)C(Oc9ccc(C#N)c(Cl)c9)C8(C)C)cn7)CC6)nc5)c(C(F)F)cc43)ccc21 (stereo not drawn) [Compound 233, N-[3-(3-chloro-4-cyano-phenoxy)-2,2,4,4-tetramethyl-cyclobutyl]-2-[4-[2-[5-[7-(difluoromethyl)-1-(1,3-dimethyl-2-oxo-benzimidazol-5-yl)-3,4-dihydro-2H-quinolin-6-yl]-2-pyridyl]ethyl]-1-piperidyl]pyrimidine-5-carboxamide] | 1 to 10 nM | > 100 nM
9 | COc1cc(OC2C(C)(C)C(NC(=O)c3ccc(N4CCC(CCc5ccc(-c6cc7c(cc6C(F)F)N(c6nn(C8CCOCC8)c8c6CN(C(C)=O)CC8)CCC7)cc5)CC4)cc3)C2(C)C)ccc1C#N (stereo not drawn) [Compound 248, 4-[4-[2-[4-[1-(5-acetyl-1-tetrahydropyran-4-yl-6,7-dihydro-4H-pyrazolo[4,3-c]pyridin-3-yl)-7-(difluoromethyl)-3,4-dihydro-2H-quinolin-6-yl]phenyl]ethyl]-1-piperidyl]-N-[3-(4-cyano-3-methoxy-phenoxy)-2,2,4,4-tetramethyl-cyclobutyl]benzamide] | < 1 nM | 0.1 to 1 nM
10 | CC(=O)N1CCc2c(c(-c3cccc4cc(-c5ccc(C(=O)NCCc6ncc(C(=O)NC7C(C)(C)C(Oc8ccc(C#N)c(Cl)c8)C7(C)C)cn6)nc5)ncc34)nn2C2CCOCC2)C1 (stereo not drawn) [Compound 78, 2-[2-[[5-[8-(5-acetyl-1-tetrahydropyran-4-yl-6,7-dihydro-4H-pyrazolo[4,3-c]pyridin-3-yl)-3-isoquinolyl]pyridine-2-carbonyl]amino]ethyl]-N-[3-(3-chloro-4-cyano-phenoxy)-2,2,4,4-tetramethyl-cyclobutyl]pyrimidine-5-carboxamide] | < 1 nM | 1 to 100 nM
11 | CC(=O)N1CCc2c(c(N3CCCc4cc(-c5cnn(C)c5)c(C(F)F)cc43)nn2C2CCN(C(=O)C3CCN(c4ccc5c(n4)CN(C4C(C)(C)C(Oc6ccc(C#N)c(Cl)c6)C4(C)C)C5=O)CC3)CC2)C1 (stereo not drawn) [Compound 299, 4-[3-[2-[4-[4-[5-acetyl-3-[7-(difluoromethyl)-6-(1-methylpyrazol-4-yl)-3,4-dihydro-2H-quinolin-1-yl]-6,7-dihydro-4H-pyrazolo[4,3-c]pyridin-1-yl]piperidine-1-carbonyl]-1-piperidyl]-5-oxo-7H-pyrrolo[3,4-b]pyridin-6-yl]-2,2,4,4-tetramethyl-cyclobutoxy]-2-chloro-benzonitrile] | < 1 nM | 0.1 to 1 nM
12 | CC(=O)N1CCc2c(c(Nc3ccc(-c4cnn(C)c4)cc3F)nn2C2CN(CCC3CCN(c4ncc(C(=O)NC5C(C)(C)C(Oc6ccc(C#N)c(Cl)c6)C5(C)C)cn4)CC3)C2)C1 (stereo not drawn) [Compound 3, 2-[4-[2-[3-[5-acetyl-3-[2-fluoro-4-(1-methylpyrazol-4-yl)anilino]-6,7-dihydro-4H-pyrazolo[4,3-c]pyridin-1-yl]azetidin-1-yl]ethyl]-1-piperidyl]-N-[3-(3-chloro-4-cyano-phenoxy)-2,2,4,4-tetramethyl-cyclobutyl]pyrimidine-5-carboxamide] | > 100 nM | > 100 nM
